Measured values reported in PubChem BioAssay (NCI).
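Briefly, cells in 96-well plates were exposed to five compound concentrations for 48 h, and endpoints were estimated by linear interpolation. The concentration for full growth arrest is given as TGI.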

Each compound was assayed on IGROV1 ovarian (assay: NCI anticancer screen, dose series, 48 h).

**Q.** With `Cc1ccc(S(=O)(=O)N2CCNCCN(S(=O)(=O)c3ccc(C)cc3)CCNCC2)cc1` as the compound, how does the TGI read?
**A.** The TGI was 42.9 µM.

**Q.** For `COc1cc(C2c3cc4c(cc3C(=O)C3CCC(=O)N32)OCO4)cc(OC)c1O` (stereo unspecified), which TGI is on record?
**A.** Its TGI is over 50 µM.

**Q.** Which TGI does the source give for `Cc1cn(C2CC(N=[N+]=[N-])C(COP(=O)(O)OCC3OC(n4cc(F)c(=O)[nH]c4=O)CC3O)O2)c(=O)[nH]c1=O` (stereo unspecified) here?
**A.** The TGI was 9.57 µM.

These compounds were tested on OVCAR-5 ovarian (assay: NCI anticancer screen, dose series, 48 h).

**Q.** How did the TGI turn out when `C=C1C(=O)O[C@H]2C1C[C@H](O)[C@@]1(C)OC1CC[C@@]1(C)O[C@H]21` (stereo partly specified) was run?
**A.** The TGI was 31.5 µM.

**Q.** For `O=C(NCCNCCNC(=O)c1cc(-c2ccccc2)nc2ccccc12)c1cc(-c2ccccc2)nc2ccccc12`, which TGI is on record?
**A.** The TGI was 4.91 µM.

**Q.** How did the TGI turn out when `COc1cc([C@@H]2c3cc4c(cc3[C@@H](Nc3ccc(Cl)cc3C(=O)c3ccccc3)[C@H]3COC(=O)[C@H]23)OCO4)cc(OC)c1OC` was run?
**A.** The TGI was over 100 µM.

**Q.** `Cc1cc(O)c(/C=N/C(=S)Nc2ccc(S(N)(=O)=O)cc2)c(=O)o1` was tested. Which TGI did it give?
**A.** The TGI was over 100 µM.

**Q.** `CCOC(=O)c1nc2ccc(C(F)(F)F)cc2nc1Nc1ccc(OC)cc1` was tested. Which TGI did it give?
**A.** Its TGI is over 100 µM.

**Q.** `Cn1nnc2c3c(N(CCO)CCO)ccnc3ccc21` was tested. Which TGI did it give?
**A.** The TGI was over 100 µM.

**Q.** With `COc1ccc(-c2nc(-c3cnccn3)n(C3OC(CO)C(O)C3O)n2)cc1` (stereo unspecified) as the compound, how does the TGI read?
**A.** Its TGI is over 10 µM.

**Q.** Which TGI does the source give for `Cc1ccc(S(=O)(=O)N2CCSCCSCCSCCN(S(=O)(=O)c3ccc(C)cc3)CC2)cc1` here?
**A.** The TGI was over 100 µM.

**Q.** For `CC(=O)[C@H]1[C@H](O)C[C@@]2(C)[C@@H]3CCc4cc(O)c(OC5OC(CO)C(O)C(O)C5O)cc4C3(C)C(=O)C[C@]12C` (stereo partly specified), which TGI is on record?
**A.** Its TGI is over 100 µM.

**Q.** Which TGI does the source give for `CC(C)(O)c1cc2c(cc1C(C)(C)O)-c1ccccc1-2` here?
**A.** Its TGI is over 100 µM.

**Q.** Which TGI does the source give for `CCCc1nc2c(n1CC)C(=O)c1ccccc1C2=O` here?
**A.** Its TGI is over 100 µM.

**Q.** Which TGI does the source give for `CC(Oc1ccc(Cl)cc1Cl)C(=O)NN1C(=O)CC(=O)N(c2ccccc2)C1=S` (stereo unspecified) here?
**A.** Its TGI is over 100 µM.

**Q.** `O=C(NCCN1CCCCC1)c1cccc(I)c1` was tested. Which TGI did it give?
**A.** Its TGI is over 100 µM.

**Q.** For `COC(=O)[C@@](NC(=O)OCc1ccccc1)([C@H](C)O)C(F)(F)F`, which TGI is on record?
**A.** Its TGI is over 100 µM.

**Q.** Which TGI does the source give for `CO/C(=N\N=C\c1ccc(Cl)c(Cl)c1)c1ccncc1` here?
**A.** Its TGI is over 10 µM.

**Q.** For `CC(=O)/C(=C\I)c1ccccc1`, which TGI is on record?
**A.** The TGI was 2.99 µM.

**Q.** Which TGI does the source give for `CCOC(=O)c1c[nH]c(C(=O)C=[N+]=[N-])c1C1CCN(CC)C1=S` (stereo unspecified) here?
**A.** Its TGI is over 100 µM.

**Q.** With `Cc1cc(NS(=O)(=O)c2ccc(N=[N+]([O-])c3ccc(S(=O)(=O)Nc4cc(C)on4)cc3)cc2)no1` as the compound, how does the TGI read?
**A.** The TGI was over 100 µM.

**Q.** With `COC(=O)/C=C(\C)CCC1SC1(C)C` (stereo unspecified) as the compound, how does the TGI read?
**A.** The TGI was over 100 µM.

**Q.** For `COC(=O)C(=O)C(C(=O)C(=O)Nc1ccc(C)cc1C)c1nc2ccc(Cl)cc2[nH]c1=O` (stereo unspecified), which TGI is on record?
**A.** The TGI was over 100 µM.

**Q.** For `Cc1ccc(S(=O)(=O)N/N=C2/CCC3(O)CC2(C)CCC2[C@H]3CC2(C)C)cc1` (stereo partly specified), which TGI is on record?
**A.** Its TGI is 78.1 µM.

**Q.** How did the TGI turn out when `CC1=CCC(C(C)(C)NC(=O)c2ccccc2)C/C1=N/O` (stereo unspecified) was run?
**A.** Its TGI is over 100 µM.

**Q.** How did the TGI turn out when `CCSC1=N/C(=C\c2ccco2)C(=O)N1` was run?
**A.** The TGI was over 100 µM.

**Q.** How did the TGI turn out when `COc1ccc(-c2nc(Nc3ccccc3)sc2Cc2sc(Nc3ccccc3)nc2-c2ccc(OC)cc2)cc1` was run?
**A.** The TGI was over 100 µM.

**Q.** `Cc1ccc(S(=O)(=O)N2CCNCCN(S(=O)(=O)c3ccc(C)cc3)CCNCC2)cc1` was tested. Which TGI did it give?
**A.** The TGI was over 100 µM.

**Q.** For `COc1cc(C2c3cc4c(cc3C(=O)C3CCC(=O)N32)OCO4)cc(OC)c1O` (stereo unspecified), which TGI is on record?
**A.** Its TGI is over 50 µM.

**Q.** How did the TGI turn out when `Cc1cn(C2CC(N=[N+]=[N-])C(COP(=O)(O)OCC3OC(n4cc(F)c(=O)[nH]c4=O)CC3O)O2)c(=O)[nH]c1=O` (stereo unspecified) was run?
**A.** Its TGI is over 100 µM.

These compounds were tested on U251 CNS (assay: NCI anticancer screen, dose series, 48 h).

**Q.** With `C=C1C(=O)O[C@H]2C1C[C@H](O)[C@@]1(C)OC1CC[C@@]1(C)O[C@H]21` (stereo partly specified) as the compound, how does the TGI read?
**A.** The TGI was over 100 µM.

**Q.** `O=C(NCCNCCNC(=O)c1cc(-c2ccccc2)nc2ccccc12)c1cc(-c2ccccc2)nc2ccccc12` was tested. Which TGI did it give?
**A.** Its TGI is 4.07 µM.

**Q.** How did the TGI turn out when `COc1cc([C@@H]2c3cc4c(cc3[C@@H](Nc3ccc(Cl)cc3C(=O)c3ccccc3)[C@H]3COC(=O)[C@H]23)OCO4)cc(OC)c1OC` was run?
**A.** The TGI was 0.576 µM.

**Q.** `Cc1cc(O)c(/C=N/C(=S)Nc2ccc(S(N)(=O)=O)cc2)c(=O)o1` was tested. Which TGI did it give?
**A.** Its TGI is over 100 µM.

**Q.** For `CCOC(=O)c1nc2ccc(C(F)(F)F)cc2nc1Nc1ccc(OC)cc1`, which TGI is on record?
**A.** Its TGI is over 100 µM.

**Q.** `COc1ccc(-c2nc(-c3cnccn3)n(C3OC(CO)C(O)C3O)n2)cc1` (stereo unspecified) was tested. Which TGI did it give?
**A.** The TGI was over 10 µM.

**Q.** Which TGI does the source give for `Cc1ccc(S(=O)(=O)N2CCSCCSCCSCCN(S(=O)(=O)c3ccc(C)cc3)CC2)cc1` here?
**A.** The TGI was over 100 µM.

**Q.** Which TGI does the source give for `CC(=O)[C@H]1[C@H](O)C[C@@]2(C)[C@@H]3CCc4cc(O)c(OC5OC(CO)C(O)C(O)C5O)cc4C3(C)C(=O)C[C@]12C` (stereo partly specified) here?
**A.** The TGI was over 100 µM.

**Q.** With `CC(C)(O)c1cc2c(cc1C(C)(C)O)-c1ccccc1-2` as the compound, how does the TGI read?
**A.** Its TGI is over 100 µM.

**Q.** With `CCCc1nc2c(n1CC)C(=O)c1ccccc1C2=O` as the compound, how does the TGI read?
**A.** The TGI was over 100 µM.

**Q.** How did the TGI turn out when `CC(Oc1ccc(Cl)cc1Cl)C(=O)NN1C(=O)CC(=O)N(c2ccccc2)C1=S` (stereo unspecified) was run?
**A.** The TGI was over 100 µM.

**Q.** Which TGI does the source give for `O=C(NCCN1CCCCC1)c1cccc(I)c1` here?
**A.** Its TGI is over 100 µM.

**Q.** `COC(=O)[C@@](NC(=O)OCc1ccccc1)([C@H](C)O)C(F)(F)F` was tested. Which TGI did it give?
**A.** Its TGI is over 100 µM.

**Q.** With `CO/C(=N\N=C\c1ccc(Cl)c(Cl)c1)c1ccncc1` as the compound, how does the TGI read?
**A.** Its TGI is over 10 µM.

**Q.** `CC(=O)/C(=C\I)c1ccccc1` was tested. Which TGI did it give?
**A.** The TGI was 5.37 µM.

**Q.** `CCOC(=O)c1c[nH]c(C(=O)C=[N+]=[N-])c1C1CCN(CC)C1=S` (stereo unspecified) was tested. Which TGI did it give?
**A.** Its TGI is over 100 µM.

**Q.** `Cc1cc(NS(=O)(=O)c2ccc(N=[N+]([O-])c3ccc(S(=O)(=O)Nc4cc(C)on4)cc3)cc2)no1` was tested. Which TGI did it give?
**A.** The TGI was over 100 µM.

**Q.** For `COC(=O)/C=C(\C)CCC1SC1(C)C` (stereo unspecified), which TGI is on record?
**A.** The TGI was over 100 µM.

**Q.** How did the TGI turn out when `COC(=O)C(=O)C(C(=O)C(=O)Nc1ccc(C)cc1C)c1nc2ccc(Cl)cc2[nH]c1=O` (stereo unspecified) was run?
**A.** Its TGI is over 100 µM.

**Q.** How did the TGI turn out when `Cc1ccc(S(=O)(=O)N/N=C2/CCC3(O)CC2(C)CCC2[C@H]3CC2(C)C)cc1` (stereo partly specified) was run?
**A.** The TGI was 36 µM.

**Q.** `CC1=CCC(C(C)(C)NC(=O)c2ccccc2)C/C1=N/O` (stereo unspecified) was tested. Which TGI did it give?
**A.** The TGI was over 100 µM.

**Q.** Which TGI does the source give for `CCSC1=N/C(=C\c2ccco2)C(=O)N1` here?
**A.** Its TGI is over 100 µM.

**Q.** Which TGI does the source give for `COc1ccc(-c2nc(Nc3ccccc3)sc2Cc2sc(Nc3ccccc3)nc2-c2ccc(OC)cc2)cc1` here?
**A.** The TGI was over 100 µM.

**Q.** For `Cc1ccc(S(=O)(=O)N2CCNCCN(S(=O)(=O)c3ccc(C)cc3)CCNCC2)cc1`, which TGI is on record?
**A.** Its TGI is 41.1 µM.

**Q.** For `COc1cc(C2c3cc4c(cc3C(=O)C3CCC(=O)N32)OCO4)cc(OC)c1O` (stereo unspecified), which TGI is on record?
**A.** The TGI was over 50 µM.

**Q.** How did the TGI turn out when `Cc1cn(C2CC(N=[N+]=[N-])C(COP(=O)(O)OCC3OC(n4cc(F)c(=O)[nH]c4=O)CC3O)O2)c(=O)[nH]c1=O` (stereo unspecified) was run?
**A.** Its TGI is over 100 µM.
